Data as given in patent US20240287079A1, “6-AMINOPYRAZOLOPYRIMIDINE COMPOUND AND PHARMACEUTICAL USE THEREOF” (Japan Tobacco Inc., priority 2021, published 2024).

What follows are compounds tested against NLRP3 inflammasome (Homo sapiens (Human), UniProt Q96P20) (assay: Evaluation of NLRP3 inflammasome inhibitory activity (inhibition of IL-1β production in LPS/Nigericin-stimulated THP1-Null cells)). Conditions: IL-1β production in THP1-Null cells, PMA, LPS 1 μg/mL, Nigericin 7.5 μmol/L, AlphaLISA.
Type: cell-based
How it was run: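 THP1-Null cells primed with 1 μg/mL LPS, then treated with test compound; supernatant IL-1β quantified by AlphaLISA. Inhibition calculated with blank wells as 100% and control wells as 0%.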

NLRP3 inflammasome, sequence (Q96P20 whole entry): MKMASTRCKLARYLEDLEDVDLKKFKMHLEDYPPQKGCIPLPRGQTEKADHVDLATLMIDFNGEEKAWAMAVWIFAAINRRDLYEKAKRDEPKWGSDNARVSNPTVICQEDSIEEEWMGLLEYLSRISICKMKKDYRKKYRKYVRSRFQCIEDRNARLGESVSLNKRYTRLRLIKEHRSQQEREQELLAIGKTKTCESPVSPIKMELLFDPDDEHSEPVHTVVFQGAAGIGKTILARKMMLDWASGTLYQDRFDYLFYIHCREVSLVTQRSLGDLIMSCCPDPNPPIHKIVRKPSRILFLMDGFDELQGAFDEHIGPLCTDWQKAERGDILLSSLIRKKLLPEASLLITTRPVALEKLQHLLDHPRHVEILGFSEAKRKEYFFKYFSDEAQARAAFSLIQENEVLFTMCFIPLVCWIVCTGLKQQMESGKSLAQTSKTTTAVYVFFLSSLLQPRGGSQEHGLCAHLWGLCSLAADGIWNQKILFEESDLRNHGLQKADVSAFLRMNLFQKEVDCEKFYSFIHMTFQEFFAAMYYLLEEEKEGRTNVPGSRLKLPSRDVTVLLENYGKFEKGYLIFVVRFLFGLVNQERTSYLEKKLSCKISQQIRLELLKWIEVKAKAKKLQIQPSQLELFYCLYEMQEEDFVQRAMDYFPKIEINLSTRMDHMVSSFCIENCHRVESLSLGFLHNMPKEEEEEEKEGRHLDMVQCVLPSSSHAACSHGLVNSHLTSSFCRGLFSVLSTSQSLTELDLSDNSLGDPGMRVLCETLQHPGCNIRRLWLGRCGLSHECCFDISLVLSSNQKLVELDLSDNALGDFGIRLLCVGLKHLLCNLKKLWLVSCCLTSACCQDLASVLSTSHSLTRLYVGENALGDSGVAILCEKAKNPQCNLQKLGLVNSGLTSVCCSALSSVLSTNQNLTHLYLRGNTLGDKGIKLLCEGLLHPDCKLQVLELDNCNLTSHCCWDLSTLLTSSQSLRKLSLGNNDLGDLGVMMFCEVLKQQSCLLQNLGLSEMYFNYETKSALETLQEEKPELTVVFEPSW

SMILES	IC50 [nM]
Cc1cc(Br)cc(C)c1-n1cc2c(=O)[nH]c(N3CCOCC3=O)nc2n1 [Example 353]	76
CC(=O)N1CC2CN(c3nc4nn(-c5ccc(C(F)(F)F)cc5Cl)cc4c(=O)[nH]3)CC2C1 (stereo not drawn) [Example 187]	38
Cc1cc(Br)cc(C)c1-n1cc2c(=O)[nH]c(NC3CCCN(C)C3)nc2n1 (racemic) [Example 245]	8
O=c1[nH]c(N2CCCC2)nc2nn(-c3ccccc3)cc12 [Example 2]	8900
Cc1cc(Br)cc(C)c1-n1cc2c(=O)[nH]c(N3CCCC3)nc2n1 [Example 280]	4.2
Cc1ccccc1-n1cc2c(=O)[nH]c(NCC(C)C)nc2n1 [Example 35]	1700
Cc1ccccc1-n1cc2c(=O)[nH]c(N3CCC3Cc3ccccc3)nc2n1 (racemic) [Example 38]	2500
C=C(C)c1ccc(-n2cc3c(=O)[nH]c(N4CCCC4)nc3n2)c(C)c1 [Example 81]	11
Cc1cc(Br)cc(C)c1-n1cc2c(=O)[nH]c(N3CC4(CC(O)C4)C3)nc2n1 [Example 199]	6.8
O=c1[nH]c(N2CCOCCO2)nc2nn(-c3ccc(C4CC4)cc3C(F)(F)F)cc12 [Example 356]	23
Cc1cccc(C)c1-n1cc2c(=O)[nH]c(N3CC(C(F)(F)F)C3)nc2n1 [Example 53]	750
COC(c1cc(C2CC2)ccc1-n1cc2c(=O)[nH]c(N3C[C@H]4C[C@@H]3CO4)nc2n1)C1CC1 (stereo partly drawn) [Example 315]	670
Cc1cc(Br)cc(C)c1-n1cc2c(=O)[nH]c(N3CCC(F)(F)C3)nc2n1 [Example 283]	7.1
CN(C)c1nc2nn(-c3ccccc3Cl)cc2c(=O)[nH]1 [Example 4]	1700
O=c1[nH]c(N2CCOCC2)nc2nn(-c3ccc(C(F)(F)F)cc3Cl)cc12 [Example 128]	28
Cc1cc(Br)cc(C)c1-n1cc2c(=O)[nH]c(N3CCCOCC3)nc2n1 [Example 145]	12

SMILES	IC50 [nM]
COC1CCN(c2nc3nn(-c4c(C)cccc4C)cc3c(=O)[nH]2)C1 (racemic) [Example 54]	480
O=c1[nH]c(N2CCCC2)nc2nn(-c3ccc(Cl)cc3F)cc12 [Example 97]	27
Cc1cc(Br)ccc1-n1cc2c(=O)[nH]c(N3CCN(c4ncccn4)CC3)nc2n1 [Example 149]	21
Cc1cc(Br)ccc1-n1cc2c(OCC#N)nc(N3CCOCC3)nc2n1 [Example 156]	290
Cc1cc(C#N)ccc1-n1cc2c(=O)[nH]c(N3CCCC3)nc2n1 [Example 71]	1200
COc1cc(C)c(-n2cc3c(=O)[nH]c(N4CCOCC4)nc3n2)c(C)c1 [Example 253]	24
Cc1cc(Cl)cc(C#N)c1-n1cc2c(=O)[nH]c(N3CCOCC3)nc2n1 [Example 168]	60
O=c1[nH]c(N2CC3(CC(O)C3)C2)nc2nn(-c3ccc(C(F)(F)F)cc3Cl)cc12 [Example 183]	15
Cc1cc(Br)ccc1-n1cc2c(=O)[nH]c(N3CC(F)(F)C3)nc2n1 [Example 76]	4.8
Cc1cc(Br)ccc1-n1cc2c(OCC3CC3)nc(N3CCOCC3)nc2n1 [Example 155]	290
O=c1[nH]c(N2CCOCC2)nc2nn(-c3ccc(Br)cc3C(F)(F)F)cc12 [Example 241]	11
Cc1cc(Br)cc(C)c1-n1cc2c(=O)n(C)c(N3CC4CC(C3)O4)nc2n1 [Example 310]	450
Cc1cc(C)c(-n2cc3c(=O)[nH]c(N4CCCC(O)C4)nc3n2)c(C)c1 (racemic) [Example 107]	58
COc1ccc(-n2cc3c(=O)[nH]c(N4CCCC4)nc3n2)c(C)c1 [Example 171]	29
Cc1cc(Br)ccc1-n1cc2c(=O)[nH]c(N3CCCOCC3)nc2n1 [Example 142]	22

Same assay, conditions: IL-1β production in THP1-Null cells; test compound 2.4 μM

SMILES	inhibition at 2.4 µM [%]
O=c1[nH]c(N2CCOCC2)nc2nn(-c3c(Cl)cc(C(F)(F)F)cc3N3CCOCC3)cc12 [Example 256]	40
Cc1nn(C)c(C)c1-n1cc2c(=O)[nH]c(N3CCCC3)nc2n1 [Example 342]	45
